According to ChEMBL document CHEMBL1123967, “New potent antagonists of leukotrienes C4 and D4. 1. Synthesis and structure-activity relationships” (J Med Chem, 1988):

Assays:
[1] = molecular target: Cysteinyl leukotriene receptor (Homo sapiens) (UniProt Q9Y271+Q9NS75); assay: In vivo inhibition of LTD4-induced bronchoconstriction in anesthetized guinea pig.; assay type: functional, organism-based; conditions: Cavia porcellus; target entry is the homologue from another species
[2] = system: Cavia porcellus; assay: Inhibition of LTE4-induced bronchoconstriction in guinea pig at dose of (1 ug/kg) given intravenously; assay type: functional; conditions: iv, read-out: ID50 (the source's name)
[3] = system: Cavia porcellus; assay: Inhibition of LTB4 induced bronchoconstriction in guinea pig at dose of (1 ug/kg) given intravenously; assay type: functional; conditions: iv, read-out: ID50 (the source's name)
[4] = system: Cavia porcellus; assay: Inhibition of LTD4-induced bronchoconstriction in guinea pig at dose of (0.5 ug/kg) given intravenously; assay type: functional; conditions: iv, read-out: ID50 (the source's name)
[5] = system: Cavia porcellus; assay: Inhibition of LTC4-induced bronchoconstriction in guinea pig at dose of (0.5 ug/kg) given intravenously; assay type: functional; conditions: iv, read-out: ID50 (the source's name)
[6] = system: Cavia porcellus; assay: Inhibition of LTD4-induced bronchoconstriction in guinea pig in guinea pig at dose of (0.5 ug/kg) given intravenously; assay type: functional; conditions: iv, read-out: ID50 (the source's name)
[7] = system: Cavia porcellus; assay: Inhibition of LTD4 (5 ng/site) induced vascular permeability in guinea pig skin at dose 0.3 mg/kg given perorally; assay type: functional; conditions: route oral
[8] = system: Cavia porcellus; assay: Inhibition of LTB4 induced bronchoconstriction in guinea pig at dose of 3 ug/kg given intravenously; assay type: functional; conditions: iv, read-out: ID50 (the source's name)
[9] = system: Cavia porcellus; assay: Inhibition of LTD4 (5 ng/site) induced vascular permeability in guinea pig skin at dose 1 mg/kg given perorally; assay type: functional; conditions: route oral
[10] = molecular target: T1, Cysteinyl leukotriene receptor (Homo sapiens, UniProt Q9Y271+Q9NS75); assay: Inhibition of LTC4 induced smooth muscle contraction of guinea pig ileum; assay type: functional, tissue-based, Cavia porcellus; conditions: target entry is the homologue from another species
T1 sequence (Q9Y271 whole entry): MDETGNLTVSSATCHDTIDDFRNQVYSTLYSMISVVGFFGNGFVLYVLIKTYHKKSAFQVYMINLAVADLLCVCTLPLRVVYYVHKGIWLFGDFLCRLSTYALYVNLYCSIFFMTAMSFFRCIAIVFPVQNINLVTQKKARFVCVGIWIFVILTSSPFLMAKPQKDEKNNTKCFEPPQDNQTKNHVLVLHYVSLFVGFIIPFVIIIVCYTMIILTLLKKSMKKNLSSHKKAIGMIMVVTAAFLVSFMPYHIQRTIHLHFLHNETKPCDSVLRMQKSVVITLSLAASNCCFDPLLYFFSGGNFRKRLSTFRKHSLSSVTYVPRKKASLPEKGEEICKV
T1 sequence (Q9NS75 whole entry): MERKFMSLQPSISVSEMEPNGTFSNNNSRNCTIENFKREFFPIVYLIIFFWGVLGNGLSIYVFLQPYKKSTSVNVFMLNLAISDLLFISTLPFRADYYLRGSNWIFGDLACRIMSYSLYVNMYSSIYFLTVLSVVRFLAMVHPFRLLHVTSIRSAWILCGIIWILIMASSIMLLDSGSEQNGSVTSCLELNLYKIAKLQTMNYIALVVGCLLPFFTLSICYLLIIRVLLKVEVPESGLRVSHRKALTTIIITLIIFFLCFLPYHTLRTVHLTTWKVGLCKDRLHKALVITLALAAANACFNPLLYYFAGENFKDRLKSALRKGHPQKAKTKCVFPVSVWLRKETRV

[11] = system: Cavia porcellus; assay: Inhibition of LTD4 (5 ng/site) induced vascular permeability in guinea pig skin at dose 30 mg/kg given perorally; assay type: functional; conditions: route oral
[12] = system: Cavia porcellus; assay: Inhibition of LTD4 (5 ng/site) induced vascular permeability in guinea pig skin at dose 10 mg/kg given perorally; assay type: functional; conditions: route oral
[13] = system: Cavia porcellus; assay: Inhibition of LTD4 induced bronchoconstriction in guinea pig at dose of (0.5 ug/kg) given intravenously; assay type: functional; conditions: iv, read-out: ID50 (the source's name)
[14] = system: Cavia porcellus; assay: Inhibition of LTC4 induced bronchoconstriction in guinea pig at dose of (0.5 ug/kg) given intravenously; assay type: functional; conditions: iv, read-out: ID50 (the source's name)
[15] = system: Cavia porcellus; assay: Inhibition of LTE4 induced bronchoconstriction in guinea pig at dose of 1 ug/kg given intravenously; assay type: functional; conditions: iv, read-out: ID50 (the source's name)

SMILES	ID50 [1] [µg/kg]	IC50 [10] [nM]	ED50 [2] [µg/kg]	ED50 [5] [µg/kg]	inhibition in vivo at 0.3 mg/kg [7] [%]	ED50 [8] [µg/kg]	inhibition in vivo at 1 mg/kg [9] [%]	inhibition in vivo at 30 mg/kg [11] [%]	inhibition in vivo at 10 mg/kg [12] [%]	also measured
CCCc1c(OCC(O)COc2ccc3c(=O)cc(C(=O)[O-])oc3c2CCC)ccc(C(C)=O)c1O.[Na+] (stereo unspecified) [FPL-55712 SODIUM SALT]	500		211	155						ED50 [3]: > 500 µg/kg; ED50 [4]: 440 µg/kg
CCCCC/C=C/COc1ccc(C(=O)Nc2cccc3c(=O)cc(-c4nn[nH]n4)oc23)cc1	0.72	0.06					25			

Continued, in another order:

ID50 [1] [µg/kg]	IC50 [10] [nM]	SMILES	ED50 [2] [µg/kg]	ED50 [5] [µg/kg]	inhibition in vivo at 0.3 mg/kg [7] [%]	ED50 [8] [µg/kg]	inhibition in vivo at 1 mg/kg [9] [%]	inhibition in vivo at 30 mg/kg [11] [%]	inhibition in vivo at 10 mg/kg [12] [%]	also measured
0.8		O=C(Nc1cccc2c(=O)cc(-c3nnn[nH]3)oc12)c1ccc(OCCCCc2ccccc2)cc1	0.7	0.8	74.7	> 500	75.2			ED50 [6]: 1 µg/kg
2	2	CCCCC/C=C/COc1ccc(C(=O)Nc2cccc3c2OC(c2nnn[nH]2)CO3)cc1 (stereo unspecified)						< 43.8	30.4	
1.9	0.11	C=CCCCCCCOc1ccc(C(=O)Nc2cccc3c(=O)cc(-c4nn[nH]n4)oc23)cc1			< 46.7		< 60.7			
1.2	0.37	O=C(Nc1cccc2c1OC(c1nnn[nH]1)CO2)c1ccc(OCCCCc2ccccc2)cc1 (stereo unspecified)				> 500		63.2	61.8	ED50 [13]: 4.4 µg/kg; ED50 [14]: 1.1 µg/kg; ED50 [15]: 2 µg/kg
